# In publication PMC4754833, “Rilpivirine analogs potently inhibit drug-resistant HIV-1 mutants” (Retrovirology, 2016):
# Legend:
# [1] = test system: HIV-1 RT mutant V111A; experiment: single round infection assay, V111A; type: cell-based; settings: for fold-change of IC50 of the mutant relative to WT: V111A vs WT; for IC50: Human immunodeficiency virus 1, V111A, ± SD, n=4
# Method: (§1) The human osteosarcoma cell line, HOS, was obtained from Dr. Richard Schwartz (Michigan State University, East Lansing, MI) and grown in Dulbecco’s modified Eagle’s medium (Invitrogen, Carlsbad, CA) supplemented with 5 % (v/v) fetal bovine serum, 5 % newborn calf serum, and penicillin (50 units/ml) plus streptomycin (50 µg/ml; Quality Biological, Gaithersburg, MD). Virion production and single-round infectivity assays were used to determine antiviral activity (IC50 values) of the compounds as previously described.
# (§2) pNLNgoMIVR-ΔEnv.LUC has been described previously. The RT open reading frame was removed from pNLNgoMIVR-ΔEnv.LUC (digestion with SpeI and SalI) and inserted between the SpeI and SalI sites of pBluescript II KS+. Using that construct as the wild-type template, we prepared the following HIV-1 RT mutants using the QuikChange II XL (Stratagene, La Jolla, CA) site-directed mutagenesis protocol kit: L100I, K103N, Y181C, Y188L, H221Y, K103N/Y181C, G190A, G190S, M230L, P236L, L100I/K103N, K103N/P225H, V106A/G190A/F227L, V106A, L234I, V106A/F227L, V106A/L234I, V106A/F227L/L234I, E40K, D67E, K101E, V111A, E138K, M184I, M184V, K101E/M184I, K101E/M184V, E138K/M184I, E138K/M184V, K101P, Y181I, and K101P/V179I. The following sense oligonucleotides were used with matching cognate antisense oligonucleotides (not shown) (Integrated DNA Technologies, Coralville, IA) in the mutagenesis: L100I, 5′-[…]-3′; L100I 2-103, 5′-[…]-3′; K103N, 5′-[…]-3′; Y181C, 5′-[…]-3′; Y188L, 5′-[…]-3′; H221Y, 5′-[…]-3′; G190A, 5′-[…]-3′; G190S, 5′-[…]-3′; P225H, 5′-[…]-3′; F227, 5′-[…]-3′; M230L, 5′-[…]-3′; P236L, 5′-[…]-3′; V106A, 5′-[…]-3′; L234I, 5′-[…]-3′; E40K, 5′-[…]-3′; D67E, 5′-[…]-3′; K101E, 5′-[…]-3′; V111A, 5′-[…]-3′; E138K, 5′-[…]-3′; M184I, 5′-[…]-3′; M184V, 5′-[…]-3′; K101P, 5′-[…]-3′; Y181I, 5′-[…]-3′; K101P/V179I, 5′-[…]-3′. The double mutants K103N/Y181C, K103N/P225H, and L100I/K103N were made using the previously generated K103N mutant and the appropriate oligonucleotides to add the second mutation, Y181C, P225, and L100I respectively. The double mutants V106A/F227L and V106A/L234I were prepared using the previously generated V106A mutant and the appropriate oligonucleotides to add the second mutation, F227L and L234I, respectively. The double mutants K101E/M184I and K101E/M184V were constructed using the previously generated K101E mutant and the appropriate oligonucleotides to add the second mutation, M184I and M184V, respectively. The double mutants E138K/M184I and E138K/M184V were constructed using the previously generated E138K mutant and the appropriate oligonucleotides for the second mutation, M184I and M184V, respectively. The triple mutant V106A/F227L/L234I was made using the previously generated V106A/F227L double mutant and the appropriate oligonucleotides for the third mutation, L234I. The triple mutant V106A/G190A/F227L was constructed in a series of steps using the previously generated V106A mutant and the appropriate oligonucleotides for the second mutation, G190A, to generate the double mutant V106A/G190A, and then the triple mutant was made using double mutant V106A/G190A and oligonucleotides for the third mutation, F227L. […]
# (§3) 10.1186/s12977-016-0244-2 The IC50 values (nM) of RPV and the RPV analogs were determined against the NNRTI resistant mutants were measured by using a single round infection assay, n = 4. The concentrations (nM) are measured by reductions in luciferase reporter activity followed by the standard deviations. […]
# [2] = test system: HIV-1 RT mutant K103N/Y181C; parameters: method as in PMID 23217210; settings: previous study; cited from earlier work
# [3] = test system: HIV-1 RT mutant M184I; experiment: single round infection assay, M184I; type: cell-based; settings: for IC50: Human immunodeficiency virus 1, M184I, ± SD, n=4
# Method: as §1
# as §2, with “respectively.” for “respectively. The double mutants E138K/M184I and E138K/M184V were constructed using the previously generated E138K mutant and the appropriate oligonucleotides for the second mutation, M184I and M184V, respectively. The triple mutant V106A/F227L/L234I was made using the previously generated V106A/F227L double mutant and the appropriate oligonucleotides for the third mutation, L234I. The triple mutant V106A/G190A/F227L was constructed in a series of steps using the previously generated V106A mutant and the appropriate oligonucleotides for the second mutation, G190A, to generate the double mutant V106A/G190A, and then the triple mutant was made using double mutant V106A/G190A and oligonucleotides for the third mutation, F227L.”
# as §3
# [4] = test system: HIV-1 RT mutant M184V; experiment: single round infection assay, M184V; type: cell-based; settings: for IC50: Human immunodeficiency virus 1, M184V, ± SD, n=4; for fold-change of IC50 of the mutant relative to WT: M184V vs WT
# Method: as §1, §2, §3
# [5] = test system: HIV-1 RT mutant K101E/M184V; experiment: single round infection assay, K101E/M184V; type: cell-based; settings: for IC50: ± SD, n=4; for fold-change of IC50 of the mutant relative to WT: K101E/M184V vs WT
# Method: as §1
# pNLNgoMIVR-ΔEnv.LUC has been described previously. The RT open reading frame was removed from pNLNgoMIVR-ΔEnv.LUC (digestion with SpeI and SalI) and inserted between the SpeI and SalI sites of pBluescript II KS+. Using that construct as the wild-type template, we prepared the following HIV-1 RT mutants using the QuikChange II XL (Stratagene, La Jolla, CA) site-directed mutagenesis protocol kit: L100I, K103N, Y181C, Y188L, H221Y, K103N/Y181C, G190A, G190S, M230L, P236L, L100I/K103N, K103N/P225H, V106A/G190A/F227L, V106A, L234I, V106A/F227L, V106A/L234I, V106A/F227L/L234I, E40K, D67E, K101E, V111A, E138K, M184I, M184V, K101E/M184I, K101E/M184V, E138K/M184I, E138K/M184V, K101P, Y181I, and K101P/V179I. The following sense oligonucleotides were used with matching cognate antisense oligonucleotides (not shown) (Integrated DNA Technologies, Coralville, IA) in the mutagenesis: L100I, 5′-[…]-3′; L100I 2-103, 5′-[…]-3′; K103N, 5′-[…]-3′; Y181C, 5′-[…]-3′; Y188L, 5′-[…]-3′; H221Y, 5′-[…]-3′; G190A, 5′-[…]-3′; G190S, 5′-[…]-3′; P225H, 5′-[…]-3′; F227, 5′-[…]-3′; M230L, 5′-[…]-3′; P236L, 5′-[…]-3′; V106A, 5′-[…]-3′; L234I, 5′-[…]-3′; E40K, 5′-[…]-3′; D67E, 5′-[…]-3′; K101E, 5′-[…]-3′; V111A, 5′-[…]-3′; E138K, 5′-[…]-3′; M184I, 5′-[…]-3′; M184V, 5′-[…]-3′; K101P, 5′-[…]-3′; Y181I, 5′-[…]-3′; K101P/V179I, 5′-[…]-3′. The double mutants K103N/Y181C, K103N/P225H, and L100I/K103N were made using the previously generated K103N mutant and the appropriate oligonucleotides to add the second mutation, Y181C, P225, and L100I respectively. The double mutants V106A/F227L and V106A/L234I were prepared using the previously generated V106A mutant and the appropriate oligonucleotides to add the second mutation, F227L and L234I, respectively. The double mutants K101E/M184I and K101E/M184V were constructed using the previously generated K101E mutant and the appropriate oligonucleotides to add the second mutation, M184I and M184V, respectively. The double mutants E138K/M184I and E138K/M184V were constructed using the previously generated E138K mutant and the appropriate oligonucleotides for the second mutation, M184I and M184V, respectively. The triple mutant V106A/F227L/L234I was made using the previously generated V106A/F227L double mutant and the appropriate oligonucleotides for the third mutation, L234I. The triple mutant V106A/G190A/F227L was constructed in a series of steps using the previously generated V106A mutant and the appropriate oligonucleotides for the second mutation, G190A, to generate the double mutant V106A/G190A, and then the triple mutant was made using double mutant V106A/G190A and oligonucleotides for the third mutation, F227L. The DNA sequence of each construct was verified by DNA sequence determination. The sequences encoding the mutant RTs were then subcloned into pNLNgoMIVR-ΔEnv.LUC (between the KpnI and SalI sites) to produce the mutant HIV-1 constructs. These DNA sequences were also checked independently by DNA sequence determination.
# as §3
# [6] = test system: HIV-1 RT mutant E138K; parameters: method as in PMID 23217210; settings: previous study; cited from earlier work
# [7] = test system: HIV-1 RT mutant V106A/L234I; experiment: single round infection assay, V106A/L234I; type: cell-based; settings: V106A/L234I vs WT
# Method: as §1
# pNLNgoMIVR-ΔEnv.LUC has been described previously. The RT open reading frame was removed from pNLNgoMIVR-ΔEnv.LUC (digestion with SpeI and SalI) and inserted between the SpeI and SalI sites of pBluescript II KS+. Using that construct as the wild-type template, we prepared the following HIV-1 RT mutants using the QuikChange II XL (Stratagene, La Jolla, CA) site-directed mutagenesis protocol kit: L100I, K103N, Y181C, Y188L, H221Y, K103N/Y181C, G190A, G190S, M230L, P236L, L100I/K103N, K103N/P225H, V106A/G190A/F227L, V106A, L234I, V106A/F227L, V106A/L234I, V106A/F227L/L234I, E40K, D67E, K101E, V111A, E138K, M184I, M184V, K101E/M184I, K101E/M184V, E138K/M184I, E138K/M184V, K101P, Y181I, and K101P/V179I. […]
# as §3
# [8] = test system: HIV-1 RT mutant Y188L; parameters: method as in PMID 23217210; settings: previous study; cited from earlier work
# [9] = Human immunodeficiency virus 1, K101E/M184V
smiles,measurement,setting,value
"Cc1cc(/C=C/C#N)cc(C)c1Nc1ccnc(Nc2ccc(C#N)cc2)n1 [RPV, rilpivirine]",fold-change of IC50 of the mutant relative to WT,[1],< 2
same,IC50,[2],< 5 nM
COc1ccc(Cn2cnc3c(Nc4ccc(C#N)cc4)nc(Nc4c(C)cc(/C=C/C#N)cc4C)nc32)cc1 [compound 12],IC50,[1],0.76 ± 0.17 nM
same,fold-change of IC50 of the mutant relative to WT,[1],< 2
same,IC50,[3],0.69 ± 0.2 nM
same,IC50,[4],1.6 ± 0.42 nM
same,fold-change of IC50 of the mutant relative to WT,[4],2
same,IC50,[5]; [9],1.8 ± 0.21 nM
same,fold-change of IC50 of the mutant relative to WT,[5],3
same,IC50,[6],15 nM
Cc1cc(/C=C/C#N)cc(C)c1Nc1ncc2ncn(-c3ccc(C#N)cc3)c2n1 [compound 26],fold-change of IC50 of the mutant relative to WT,[7],5
same,IC50,[1],1.5 ± 0.8 nM
same,IC50,[3],5.6 ± 2.2 nM
same,IC50,[4],4.2 ± 0.99 nM
same,IC50,[5]; [9],9.1 ± 0.1 nM
same,fold-change of IC50 of the mutant relative to WT,[5],< 2
Cc1cc(/C=C/C#N)cc(C)c1Nc1nc(Nc2ccc(C#N)cc2)ncc1[N+](=O)[O-] [compound 6],fold-change of IC50 of the mutant relative to WT,[5],2
same,IC50,[8],< 10 nM
Cc1cc(/C=C/C#N)cc(C)c1Nc1nc(Nc2ccc(C#N)cc2)c2nc[nH]c2n1 [compound 13],fold-change of IC50 of the mutant relative to WT,[5],2
same,IC50,[8],< 10 nM
Cc1cc(/C=C/C#N)cc(C)c1Nc1nc(Nc2ccc3scnc3c2)c2nc[nH]c2n1 [compound 21],fold-change of IC50 of the mutant relative to WT,[7],2
same,IC50,[5]; [9],< 2.5 nM
same,fold-change of IC50 of the mutant relative to WT,[5],6
same,IC50,[5]; K101E/M184V,2.4 ± 0.2 nM
same,IC50,[8],< 10 nM
Cc1cc(/C=C/C#N)cc(C)c1Nc1nc(Nc2ccc(C(F)(F)F)cc2)c2nc[nH]c2n1 [compound 15],IC50,[5]; [9],< 6 nM
same,fold-change of IC50 of the mutant relative to WT,[5],2
same,IC50,[5]; K101E/M184V,3.8 ± 0.42 nM
Cc1cc(/C=C/C#N)cc(C)c1Nc1nc(Nc2ccc(C#N)cc2)ncc1N [compound 7],IC50,[8],< 10 nM
same,IC50,[2],< 5 nM
Cc1cc(/C=C/C#N)cc(C)c1Nc1nc(Nc2ccc(F)cc2)c2nc[nH]c2n1 [compound 17],IC50,[1],0.5 ± 0.17 nM
same,IC50,[3],1.7 ± 0.3 nM
same,IC50,[4],1.6 ± 0.26 nM
same,IC50,[5]; [9],8.1 nM
same,fold-change of IC50 of the mutant relative to WT,[5],4
COc1ccc(Nc2nc(Nc3c(C)cc(/C=C/C#N)cc3C)nc3[nH]cnc23)cc1 [compound 16],fold-change of IC50 of the mutant relative to WT,[3]; M184I vs WT,< 2
same,fold-change of IC50 of the mutant relative to WT,[4],< 2
same,fold-change of IC50 of the mutant relative to WT,[5],2
Cc1cc(/C=C/C#N)cc(C)c1-n1cnc2cnc(Nc3ccc(C#N)cc3)nc21 [compound 27],fold-change of IC50 of the mutant relative to WT,[5],< 2
same,IC50,[8],< 10 nM
Cc1cc(/C=C/C#N)cc(C)c1Nc1ncc(N)c(Nc2ccc(C#N)cc2)n1 [compound 9],fold-change of IC50 of the mutant relative to WT,[5],< 2
CC(=O)c1ccc(Nc2nc(Nc3c(C)cc(/C=C/C#N)cc3C)nc3[nH]cnc23)cc1 [compound 14],fold-change of IC50 of the mutant relative to WT,[7],3
same,fold-change of IC50 of the mutant relative to WT,[5],< 2
